Experimental data from patent publication US20110275574A1, “METHOD OF INHIBITING PROLIFERATION OF HEPATIC STELLATE CELLS” (Agency for Science, Technology and Research, priority 2009, published 2011).
d = 2'-deoxy (DNA); r = 2'-OH (RNA)

Tests used:
[1] = system: HSC-2 cells; experiment: gap-FRAP analysis of gap junction intercellular communication; type: cell-based, rat
Procedure: Analysis of gap junction intercellular communication: HSC-2 cells were grown in a 60 mm cell culture dish overnight. At 90% cell confluence, hTGF-β1 (final concentration 10 ng/ml) or carbenoxolone (final concentration 40 μM) was added and incubated for 6 hours. As control, only PBS was given to the cells. Alternatively, BIM I (final concentration 5 μM) was added 30 minutes before the addition of hTGF-[3]. After a brief rinse in PBS, cells were incubated in D-MEM without phenol red, containing 5,6-carboxyfluorescein diacetate (Research Organics, USA) at a final concentration of 50 μg/ml and incubated in a 37° C. humidified incubator for 30 min. The cells were then rinsed twice with PBS and D-MEM without phenol red was added before proceeding with the Fluorescence Recovery After Photobleaching (FRAP) assay. The FRAP application included in the software package of the LEICA TCS SP2 equipped with the DM6000 (LEICA, Germany) was used. A 63× immersed objective (Leica HCX APO L U-V-I 63×/0.90 Water UV) was used. The argon laser at 488 nm was used for excitation and the fluorescence signal was captured between 500 and 535 nm. The conditions were as follows: 5 pre-bleach scans at 10% laser power, 40 bleach scans at 100% laser power followed by 60 post-bleach scans at 15 seconds intervals. During the bleaching period, the Zoom mode was used to bleach a single cell (target cell) defined in a region of interest (ROI). All data were corrected for photobleaching during post-bleach acquisition using the whole scanned area. The time constant of recovery, tau (τ), was estimated by fitting the corrected experimental data (OriginPro 7 SR4, OriginLab USA) to the following function: F(t)=F0+(F∞−F0)(1−e^−t/τ), with F(t) being the corrected fluorescence intensity and F∞ being the asymptotic value of the fluorescence intensity. The transfer constant (k) was calculated from k=1/τ and normalized by dividing by the number of cells in contact with the target cell. The fluorescence recovery for each cell was about 50%.

[2] = system: pCx43 Ser368; experiment: Phosphorylation of Cx43 at serine 368 by Western blot in HSC-2 cells; type: cell-based, rat
Procedure: (§1) Hepatic stellate cells treatment with recombinant human TGF-β1: Twenty four hours prior to treatment, HSCs were seeded in 75 cm^2 tissue culture flasks. At 60-70% cell confluence, recombinant human TGF-β1 (hTGF-[3]) was added at a final concentration of 1 or 10 ng/ml and incubated for 2, 6, 10, 24 or 30 hours. For the control treatment, only phosphate-buffered saline (PBS) was given to the cells. In some experiments, HSC-2 cells were treated with bisindolylmaleimide I (BIM I) at a final concentration of 5 μM for 30 min before treatment with 10 ng/ml hTGF-β1.
SDS-PAGE and Western blot: Cell lysis and subsequent separation of total protein in SDS-PAGE followed by Western blot was performed as recently described (Lim et al., 2008). The membrane was blocked with 5% non-fat milk in TBS-Tween (TBS-T). The Cx43 (sc-9059, Santa Cruz Biotechnology, USA), phosphorylated Cx43 at serine 368 (pCx43 Ser368, 3511S, Cell Signaling Technology, USA), PCNA (Ab29, Abcam, UK) and β-actin (A2228, Sigma, USA) primary antibodies were applied at a dilution of 1:1000, 1:750, 1:5000 and 1:7500 respectively in blocking solution. […] Semi-quantitative densitometric analysis of Western blots was performed using the ImageJ software (W. Rasband, NIH; rsb.info.nih.gov/ij/).

[3] = system: HSC-2 cells; experiment: Cell counting (proliferation) of HSC-2 cells; type: cell-based, rat; conditions: for total number of cells: HSC-2, Cx43 siRNA 10 nM, 48 hours, versus mock-transfected
Procedure: (§2) Snai1 and connexin 43 siRNAs transfection: Shortly before transfection, 1−2×10^6 HSC-2 cells were seeded in 100 mm cell culture dishes and incubated at 37° C. The siRNA was added at a final concentration of 10 nM to 1 ml of D-MEM without serum, followed by 120 μl of HiPerfect transfection reagent (Qiagen, Germany) and incubated for 10 min. The siRNA/transfection reagent solution was added drop-wise to the cells and incubated for 24 or 48 hours. As mock control, only HiPerfect reagent was added to the cells. The Snai1 siRNAs used were Rn_Snai1—1 and Rn_Snai1—3 and the Cx43 siRNAs used were Rn_Gja1—1 and Rn_Gja1—5 (Qiagen, Germany).
Cell counting: After treatment, cells were washed once with PBS and detached using trypsin/EDTA. Following centrifugation at 800 rpm for 4 min, the cell pellet was resuspended in 1 ml D-MEM and the cells were counted using the forward scatter function of the GUAVA PCA-96 (Guava Technologies, CA, USA).

[4] = system: Cx43 mRNA; experiment: Cx43 mRNA expression by quantitative real-time PCR in HSC-2 cells; type: cell-based, rat; conditions: for down-regulation of Cx43 mRNA: HSC-2, Cx43 siRNA 10 nM, 48 hours, relative to mock-transfected
Procedure: (§3) Cell culture conditions: Primary hepatic stellate cells were isolated from male Wistar rats according to a previously published procedure (Weiskirchen and Gressner, 2005). The protocol was approved by the Institutional Animal Care and Use Committee (IACUC) of the Biomedical Research Council of Singapore. The purity of primary HSCs was assessed by vitamin A autofluorescence one day after isolation. The cell line HSC-2 was described elsewhere (Maubach et al., 2008). All cells were cultivated in a humidified 37° C. incubator circulated with 5% CO2. High glucose Dulbecco's modified Eagle medium (D-MEM) containing 10% fetal bovine serum, 100 units/ml penicillin and 100 μg/ml streptomycin was used during cell culture. Trypsin-EDTA was purchased from Biochrome (Germany). All other cell culture reagents were from Invitrogen (CA, USA).
as §1
Reverse transcription and quantitative PCR: Total RNA was isolated from cells according to the manufacturer's protocol (RNA II kit, Machery-Nagel, Germany). All reagents for reverse transcription and real-time PCR were from Applied Biosystems (CA, USA). One microgram of total RNA was reverse transcribed to cDNA in a total reaction volume of 50 μl at conditions described in the RT kit (N8080234). Real-time PCR reactions were performed using the Fast Real Time PCR System (Applied Biosystems). Three microlitres of cDNA were used in a PCR reaction volume of 10 μl. The Taqman probes for target genes Cx43 and Snai1, as well as for endogenous control β-actin were Rn01433957_m1, Rn00441533_g1 and 4352341E, respectively. The PCR conditions were 95° C. for 20 s and 40 cycles of amplification at 95° C. for 3 s and 60° C. for 30 s.
as §2

[5] = system: Snai1 consensus sequence in the Cx43 promoter; experiment: Electrophoretic mobility shift assay, HSC-2 nuclear extract on Snai1 consensus sequence of rat Cx43 promoter; type: cell-based; conditions: nuclear extract of HSC-2, 10 ng/ml hTGF-β1 2 hours, versus untreated
Source text: Electrophoretic mobility shift assay: Based on the rat Cx43 gene (NW—001084790), biotinylated double-stranded oligonucleotide probe […]-3 [SEQ ID NO: 12], with the Snai1 consensus sequence (underlined), was synthesized (Research Biolabs, Singapore). In the mutated double-stranded oligonucleotide, the Snai1 consensus sequence was changed to CAGGAA. Nuclear protein extract was obtained using the NE-PER Nuclear and Cytoplasmic Extraction kit (Pierce, USA). The electrophoretic mobility shift assay was performed using reagents from the Snai1 kit according to its protocol (AY1398, Panomics, USA). Briefly, 5 μg nuclear protein extract was incubated in a reaction mixture consisting of poly d(1-C), 5× binding buffer and nuclease-free water for 5 min before addition of 1 μl probe (stock 20 nM). The total reaction volume was 10 μl. For competition assay, 2 μl unlabeled probe (stock 2 μM) was added 5 min prior to the addition of labeled probe. The reaction was incubated at 15° C. for 30 min. The samples were separated in a 6% non-denaturing polyacrylamide gel (Invitrogen) and transferred onto a nylon membrane.

[6] = system: PCNA; experiment: Expression of proliferation marker PCNA by Western blot in HSC-2 cells; type: cell-based, rat; conditions: HSC-2, 10 ng/ml hTGF-β1, 48 hours
Procedure: (§4) SDS-PAGE and Western blot: Cell lysis and subsequent separation of total protein in SDS-PAGE followed by Western blot was performed as recently described (Lim et al., 2008). The membrane was blocked with 5% non-fat milk in TBS-Tween (TBS-T). The Cx43 (sc-9059, Santa Cruz Biotechnology, USA), phosphorylated Cx43 at serine 368 (pCx43 Ser368, 3511S, Cell Signaling Technology, USA), PCNA (Ab29, Abcam, UK) and β-actin (A2228, Sigma, USA) primary antibodies were applied at a dilution of 1:1000, 1:750, 1:5000 and 1:7500 respectively in blocking solution. After three washes in TBS-T, the appropriate secondary antibody conjugated with horse radish peroxidase (Santa Cruz Biotechnology, USA) was added at a dilution of 1:2000 in blocking solution. After three washes in TBS-T, the membrane was developed with ECL Plus (RPN2132, GE Healthcare, UK). The incubation with pCx43 antibody was performed overnight at 4° C. All other incubations were carried out for 1 hour at room temperature. Semi-quantitative densitometric analysis of Western blots was performed using the ImageJ software (W. Rasband, NIH; rsb.info.nih.gov/ij/).
Snai1 and connexin 43 siRNAs transfection: Shortly before transfection, 1−2×10^6 HSC-2 cells were seeded in 100 mm cell culture dishes and incubated at 37° C. […]

[7] = system: Cx43 protein; experiment: Cx43 protein expression by Western blot in HSC-2 cells; type: cell-based, rat
Procedure: as §1, with “At 60-70% cell confluence, recombinant human TGF-β1 (hTGF-[3]) was added at a final concentration of 1 or 10 ng/ml and incubated for 2, 6, 10, 24 or 30 hours.” left out
as §4, with “The incubation with pCx43 antibody was performed overnight at 4° C. All other incubations were carried out for 1 hour at room temperature.” left out, “rsb.info.nih.gov/ij/). […]” for “rsb.info.nih.gov/ij/).”

[8] = system: Snai1 mRNA; experiment: Snai1 mRNA expression in in vitro activated primary HSCs; type: cell-based, rat; conditions: 1 and 10 ng/ml hTGF-β1, 10 hours
Procedure: as §3
as §1, with “In some experiments, HSC-2 cells were treated with bisindolylmaleimide I (BIM I) at a final concentration of 5 μM for 30 min before treatment with 10 ng/ml hTGF-β1.” left out
Reverse transcription and quantitative PCR: Total RNA was isolated from cells according to the manufacturer's protocol (RNA II kit, Machery-Nagel, Germany). […]

[9] = system: Snai1; experiment: Snai1 mRNA and protein expression (real-time PCR, Western blot) in HSC-2 cells; type: cell-based, rat
Procedure: as §1
Reverse transcription and quantitative PCR: Total RNA was isolated from cells according to the manufacturer's protocol (RNA II kit, Machery-Nagel, Germany). All reagents for reverse transcription and real-time PCR were from Applied Biosystems (CA, USA). One microgram of total RNA was reverse transcribed to cDNA in a total reaction volume of 50 μl at conditions described in the RT kit (N8080234). Real-time PCR reactions were performed using the Fast Real Time PCR System (Applied Biosystems). […]
SDS-PAGE and Western blot: Cell lysis and subsequent separation of total protein in SDS-PAGE followed by Western blot was performed as recently described (Lim et al., 2008). […] Semi-quantitative densitometric analysis of Western blots was performed using the ImageJ software (W. Rasband, NIH; rsb.info.nih.gov/ij/). […]

[10] = HSC-2, 10 ng/ml hTGF-β1, 48 hours
[11] = HSC-2, 10 ng/ml hTGF-β1, up to 30 hours

Compound: CN(C)CCCn1cc(C2=C(c3c[nH]c4ccccc34)C(=O)NC2=O)c2ccccc21 [BIM I, bisindolylmaleimide I, reference compound]
- TGF-β1-induced down-regulation of GJIC ([1]; HSC-2, 5 μM BIM I 30 minutes before 10 ng/ml hTGF-β1): attenuated
- phosphorylation of Cx43 at serine 368 after hTGF-β1 ([2]; HSC-2, 5 μM BIM I 30 min before 10 ng/ml hTGF-β1): reduces

Compound: CC1(C)[C@@H](OC(=O)CCC(=O)O)CC[C@]2(C)[C@H]3C(=O)C=C4[C@@H]5C[C@@](C)(C(=O)O)CC[C@]5(C)CC[C@@]4(C)[C@]3(C)CC[C@@H]12 [carbenoxolone]
- dye transfer rate (k), reduced to ([1]; HSC-2, 40 μM carbenoxolone, 6 hours): about 50%

Compound: Cx43 siRNA 1: Cx43 siRNA, sense strand r(CAG UGC ACA UGU AAC UAA U)dTdT [SEQ ID NO: 6], antisense SEQ ID NO: 7 (Qiagen) (sense CAGUGCACAUGUAACUAAUTT; antisense AUUAGUUACAUGUGCACUGTT; sugars from the 5' end r19 d2, backbone not given here)
- total number of cells [3]: significant decline
- down-regulation of Cx43 mRNA [4]: about 65%

Compound: Cx43 siRNA 5: Cx43 siRNA, sense strand r(GGU AAG CUU CCC UGG UCU A)dTdT [SEQ ID NO: 9], antisense SEQ ID NO: 10 (Qiagen) (sense GGUAAGCUUCCCUGGUCUATT; antisense UAGACCAGGGAAGCUUACCTT; sugars from the 5' end r19 d2, backbone not given here)
- total number of cells [3]: significant decline
- down-regulation of Cx43 mRNA [4]: about 65%

Compound: hTGF-β1: recombinant human TGF-β1, pro-fibrogenic cytokine added to HSCs
- EMSA band of Snai1-oligonucleotide complex [5]: more intense band
- expression of PCNA [6]: significant reduction
- transfer rate of the fluorescence dye 5,6-carboxyfluorescein diacetate ([1]; HSC-2, 10 ng/ml hTGF-β1, 6 hours, versus PBS control): significantly lower
- cell number [3, 10]: significant reduction
- phosphorylation of Cx43 at serine 368 ([2]; HSC-2, 10 ng/ml hTGF-β1, 6 hours): increase
- decrease of Cx43 transcripts ([4]; HSC-2, 1 ng/ml hTGF-β1, 10 hours): 30%
- decrease of Cx43 transcripts ([4]; HSC-2, 10 ng/ml hTGF-β1, 10 hours): 45%
- Cx43 transcript and protein expression [4, 11]: decrease
- expression of Cx43 [7, 10]: significant reduction
- Cx43 protein regulation ([7]; HSC-2, 1 and 10 ng/ml hTGF-β1, 24 hours): down-regulated
- Snai1 mRNA [8]: induced
- Snai1 transcript and protein expression [9, 11]: increase
- Snai1 mRNA ([9]; HSC-2, 1 and 10 ng/ml hTGF-β1, 10 hours): induced
